Here are results for 28 compounds from US10323022B2, “Pyrrolidinyl urea, pyrrolidinyl thiourea and pyrrolidinyl guanidine compounds as TrkA kinase inhibitors” (Array BioPharma Inc., priority 2011, dated 2019).

Counter-ions that a name gives are not always drawn. Some results are limits rather than exact numbers.

The target in this assay is TrkA (Homo sapiens (Human), UniProt P04629). The assay is described as follows: TrkA Omnia Assay. It is filed as biochemical. As to conditions: averaged IC50; 20 nM enzyme, 500 μM ATP, 10 μM peptide substrate. The procedure, abridged: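 Recombinant TrkA (20 nM) preincubated 10 min at ambient temperature with compound, then Omnia Tyr Peptide #4 (10 μM) and ATP (500 μM) added in 25 mM MOPS pH 7.5, 5 mM MgCl2, 0.005% Triton X-100. Fluorescence (ex 360/em 485 nm) followed continuously for 70 min; IC50 from initial rates by 4- or 5-parameter logistic fit.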
Sequence of TrkA (P04629 33-796): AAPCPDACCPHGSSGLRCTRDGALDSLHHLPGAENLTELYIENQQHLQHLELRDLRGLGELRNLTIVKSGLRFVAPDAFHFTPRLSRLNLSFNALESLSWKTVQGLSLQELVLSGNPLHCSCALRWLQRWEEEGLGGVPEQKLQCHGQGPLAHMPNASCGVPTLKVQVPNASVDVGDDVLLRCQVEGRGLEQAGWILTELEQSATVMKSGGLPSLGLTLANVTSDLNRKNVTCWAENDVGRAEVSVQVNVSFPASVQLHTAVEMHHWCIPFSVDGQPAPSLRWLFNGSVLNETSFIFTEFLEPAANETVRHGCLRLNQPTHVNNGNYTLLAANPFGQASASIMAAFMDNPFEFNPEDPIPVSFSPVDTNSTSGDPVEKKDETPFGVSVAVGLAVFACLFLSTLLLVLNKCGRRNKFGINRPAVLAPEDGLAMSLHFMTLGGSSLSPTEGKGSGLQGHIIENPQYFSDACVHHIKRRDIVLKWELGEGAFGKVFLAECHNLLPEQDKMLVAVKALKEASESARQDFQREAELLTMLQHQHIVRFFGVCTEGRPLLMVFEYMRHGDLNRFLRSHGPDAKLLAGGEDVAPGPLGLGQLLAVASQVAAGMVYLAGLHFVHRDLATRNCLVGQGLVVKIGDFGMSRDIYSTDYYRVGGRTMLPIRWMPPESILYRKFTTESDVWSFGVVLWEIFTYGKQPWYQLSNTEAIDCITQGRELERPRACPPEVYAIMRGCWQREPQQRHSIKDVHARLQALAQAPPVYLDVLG

Regarding `COCCN1C[C@@H](NC(=O)Nc2c(C)c([C@H]3C[C@@H](O)C3)nn2-c2ccccc2)[C@H](c2cc(F)cc(F)c2)C1` [Example 456, 1-((3S,4R)-4-(3,5-difluorophenyl)-1-(2-methoxyethyl)pyrrolidin-3-yl)-3-(3-(cis-3-hydroxycyclobutyl)-4-methyl-1-phenyl-1H-pyrazol-5-yl)urea], the IC50 was less than 100 nM.

In the case of `COCCN1C[C@@H](NC(=O)Nc2cc(C(F)(F)CO)nn2-c2ccccc2)[C@H](c2ccc(F)c(F)c2)C1` [Example 285, 1-(3-(1,1-difluoro-2-hydroxyethyl)-1-phenyl-1H-pyrazol-5-yl)-3-((3S,4R)-4-(3,4-difluorophenyl)-1-(2-methoxyethyl)pyrrolidin-3-yl)urea], the IC50 was less than 100 nM.

`CCOc1nn(-c2ccccc2)c(NC(=O)N[C@@H]2CN(c3c(F)cccc3F)C[C@H]2c2ccccc2)c1C` [Example 240, 1-((3S,4R)-1-(2,6-difluorophenyl)-4-phenylpyrrolidin-3-yl)-3-(3-ethoxy-4-methyl-1-phenyl-1H-pyrazol-5-yl)urea] yielded an IC50 of 100 to 1000 nM.

In the case of `COCCN1C[C@@H](NC(=O)Nc2c(F)c(C)nn2-c2ccccc2)[C@H](c2ccc(F)c(F)c2)C1` [Example 167, 1-((3S,4R)-4-(3,4-difluorophenyl)-1-(2-methoxyethyl)pyrrolidin-3-yl)-3-(4-fluoro-3-methyl-1-phenyl-1H-pyrazol-5-yl)urea], the IC50 was less than 100 nM.

Compound `COCCN1C[C@@H](NC(=O)Nc2c(Cl)c(C)nn2-c2ccccc2)[C@H](c2ccc(F)c(F)c2)C1` [Example 64, 1-(4-chloro-3-methyl-1-phenyl-1H-pyrazol-5-yl)-3-((3S,4R)-4-(3,4-difluorophenyl)-1-(2-methoxyethyl)pyrrolidin-3-yl)urea] displayed an IC50 of less than 100 nM.

As for `COCCN1C[C@@H](NC(=O)Nc2cc(C(C)(C)C)nn2-c2ccccc2)[C@H](c2ccccc2)C1` [Example 1, 1-(3-tert-butyl-1-phenyl-H-pyrazol-5-yl)-3-(trans-1-(2-methoxyethyl)-4-phenylpyrrolidin-3-yl)urea], the IC50 is less than 100 nM.

`COCCN1C[C@@H](NC(=O)Nc2c(C)c(OCc3nnc(C)o3)nn2-c2ccccc2)[C@H](c2ccc(F)c(F)c2)C1` [Example 355, 1-((3S,4R)-4-(3,4-difluorophenyl)-1-(2-methoxyethyl)pyrrolidin-3-yl)-3-(4-methyl-3-((5-methyl-1,3,4-oxadiazol-2-yl)methoxy)-1-phenyl-1H-pyrazol-5-yl)urea] came in with an IC50 of less than 100 nM.

Consider `COCCN1C[C@@H](NC(=O)Nc2cc(OCc3ccccc3)nn2C)[C@H](c2ccc(F)c(F)c2)C1` [Example 136, 1-(3-(benzyloxy)-1-methyl-1H-pyrazol-5-yl)-3-((3S,4R)-4-(3,4-difluorophenyl)-1-(2-methoxyethyl)pyrrolidin-3-yl)urea], for which the IC50 was in the range of 100 to 1000 nM.

As to `COCCN1C[C@@H](NC(=O)Nc2c(C)c(=O)[nH]n2-c2ccccc2)[C@H](c2cc(F)c(F)c(F)c2)C1` [Example 612, 1-((3S,4R)-1-(2-methoxyethyl)-4-(3,4,5-trifluorophenyl)pyrrolidin-3-yl)-3-(4-methyl-5-oxo-2-phenyl-2,5-dihydro-1H-pyrazol-3-yl)urea], the IC50 is less than 100 nM.

Regarding `Cc1c(-c2cnn(C)c2)nn(-c2ccccc2)c1NC(=O)N[C@H]1CN(CC(F)(F)F)C[C@@H]1c1ccccc1` [Example 269, 1-(1′,4-dimethyl-1-phenyl-1H,1′H-3,4′-bipyrazol-5-yl)-3-((3R,4S)-4-phenyl-1-(2,2,2-trifluoroethyl)pyrrolidin-3-yl)urea], the IC50 was less than 100 nM.

As for `COCCN1C[C@@H](NC(=O)Nc2c(C)c(-c3cnn(C)n3)nn2-c2ccccc2)[C@H](c2ccc(F)c(F)c2)C1` [Example 351, 1-((3S,4R)-4-(3,4-difluorophenyl)-1-(2-methoxyethyl)pyrrolidin-3-yl)-3-(4-methyl-3-(2-methyl-2H-1,2,3-triazol-4-yl)-1-phenyl-1H-pyrazol-5-yl)urea], the IC50 is less than 100 nM.

Compound `COCCN1C[C@@H](NC(=O)Nc2c(Cl)c([C@H]3CCCN3)nn2-c2ccccc2)[C@H](c2ccc(F)c(F)c2)C1` [Example 585, 1-((3S,4R)-4-(3,4-difluorophenyl)-1-(2-methoxyethyl)pyrrolidin-3-yl)-3-(4-chloro-1-phenyl-3-((R)-pyrrolidin-2-yl)-1H-pyrazol-5-yl)urea dihydrochloride] had a concentration for half-maximal inhibition (IC50) of less than 100 nM.

The compound `COCCN1CC(c2ccccc2)[C@H](NC(=O)Nc2c(-c3ccccc3)nn3ccccc23)C1` (stereo partly shown) [Example 634] returned an IC50 of less than 100 nM.

In the case of `COCCN1C[C@@H](NC(=O)Nc2cc(-c3ccccc3)nn2C)[C@H](c2cc(F)cc(F)c2)C1` [Example 98, 1-((3S,4R)-4-(3,5-difluorophenyl)-1-(2-methoxyethyl)pyrrolidin-3-yl)-3-(1-methyl-3-phenyl-1H-pyrazol-5-yl) urea], the IC50 is less than 100 nM.

As for `COCCN1C[C@@H](NC(=O)Nc2c(C)c(OCC(F)(F)F)nn2-c2ccccc2)[C@H](c2ccc(F)cc2)C1` [Example 476, 1-((3S,4R)-4-(4-fluorophenyl)-1-(2-methoxyethyl)pyrrolidin-3-yl)-3-(4-methyl-1-phenyl-3-(2,2,2-trifluoroethoxy)-1H-pyrazol-5-yl)urea], the IC50 is less than 100 nM.

Regarding `COCCN1C[C@@H](NC(=O)Nc2c(C)c(-c3ccn(C)n3)nn2-c2ccccc2)[C@H](c2cc(F)cc(F)c2)C1` [Example 493, 1-((3S,4R)-4-(3,5-difluorophenyvl)-1-(2-methoxyethyl)pyrrolidin-3-yl)-3-(1′,4-dimethyl-1-phenyl-1H,1′H-[3,3′-bipyrazol]-5-yl)urea], the concentration for half-maximal inhibition (IC50) is less than 100 nM.

Consider `COCCN1C[C@@H](NC(=O)Nc2c(C)c(-c3cn(C)cn3)nn2-c2ccccc2)[C@H](c2ccc(F)c(F)c2)C1` [Example 608, 1-((3S,4R)-4-(3,4-difluorophenyl)-1-(2-methoxyethyl)pyrrolidin-3-yl)-3-(4-methyl-3-(1-methyl-1H-imidazol-4-yl)-1-phenyl-1H-pyrazol-5-yl)urea], for which the IC50 was less than 100 nM.

The compound `CCOc1nn(-c2ccccc2)c(NC(=O)N[C@@H]2CN(c3c[nH]nc3C)C[C@H]2c2ccc(F)c(F)c2)c1C` [Example 219, 1-((3S,4R)-4-(3,4-difluorophenyl)-1-(3-methyl-1H-pyrazol-4-yl)pyrrolidin-3-yl)-3-(3-ethoxy-4-methyl-1-phenyl-1H-pyrazol-5-yl)urea] returned an IC50 of less than 100 nM.

The compound `COCC(CO)N1C[C@@H](NC(=O)Nc2c(Cl)c(-c3cnn(C)c3)nn2-c2ccccc2)[C@H](c2ccc(F)c(F)c2)C1` (stereo partly shown) [Example 264] registered an IC50 of less than 100 nM.

The compound `COCCN1C[C@@H](NC(=O)Nc2cc(-c3cccc(F)c3)nn2C)[C@H](c2ccc(F)c(F)c2)C1` [Example 114, 1-((3S,4R)-4-(3,4-difluorophenyl)-1-(2-methoxyethyl)pyrrolidin-3-yl)-3-(3-(3-fluoro-phenyl)-1-methyl-1H-pyrazol-5-yl)urea] yielded a concentration for half-maximal inhibition (IC50) of less than 100 nM.

`COCCN1C[C@@H](NC(=O)Nc2c(C)c([C@@H]3CCCN3C)nn2-c2ccccc2)[C@H](c2cc(F)cc(F)c2)C1` [Example 598, 1-((3S,4R)-4-(3,5-difluorophenyl)-1-(2-methoxyethyl)pyrrolidin-3-yl)-3-(4-methyl-3-((S)-1-methylpyrrolidin-2-yl)-1-phenyl-1H-pyrazol-5-yl)urea dihydrochloride] gave a 50% inhibitory concentration (IC50) of less than 100 nM.

`COCCN1C[C@@H](NC(=O)Nc2c(Br)c(-c3cccnc3)nn2-c2ccccc2)[C@H](c2ccc(F)c(F)c2)C1` [Example 483, 1-(4-bromo-1-phenyl-3-(pyridin-3-yl)-1H-pyrazol-5-yl)-3-((3 S,4R)-4-(3,4-difluorophenyl)-1-(2-methoxyethyl)pyrrolidin-3-yl)urea] returned a half-inhibitory concentration (IC50) of less than 100 nM.

In turn, `COCCN1C[C@@H](NC(=O)Nc2cc(-c3cccc4nccn34)nn2C)[C@H](c2ccc(F)c(F)c2)C1` [Example 61, 1-((3S,4R)-4-(3,4-difluorophenyl)-1-(2-methoxyethyl)pyrrolidin-3-yl)-3-(3-(imidazo[1,2-a]pyridin-5-yl)-1-methyl-1H-pyrazol-5-yl)urea] yielded an IC50 of less than 100 nM.

As for `COCCN1C[C@@H](NC(=O)Nc2c(C)c(-c3cc(C)nc(C)c3)nn2-c2ccccc2)[C@H](c2ccc(F)c(F)c2)C1` [Example 514, 1-((3S,4R)-4-(3,4-difluorophenyl)-1-(2-methoxyethyl)pyrrolidin-3-yl)-3-(3-(2,6-dimethylpyridin-4-yl)-4-methyl-1-phenyl-1H-pyrazol-5-yl)urea], the IC50 was less than 100 nM.

`O=C(Nc1c2c(nn1-c1ccccc1)CCC2)N[C@@H]1CN(CC(F)(F)F)CC1c1cccnc1` (stereo partly drawn) [Example 213, 1-(2-phenyl-2,4,56-tetrahydrocyclopenta[c]pyrazol-3-yl)-3-((trans)-4-(pyridin-3-v)-1-(2,2,2-trifluoroethyl)pyrrolidin-3-yl)urea] registered an IC50 of 100 to 1000 nM.

Take `COCCN1C[C@@H](NC(=O)Nc2c(C)c(-c3ccccc3)nn2-c2ccccc2)[C@H](c2cc(F)c(F)c(F)c2)C1` [Example 330, 1-((3S,4R)-4-(3,4,5-trifluorophenyl)-1-(2-methoxyethyl)pyrrolidin-3-yl)-3-(4-methyl-1,3-diphenyl-1H-pyrazol-5-yl)urea]: the IC50 is less than 100 nM.

The compound `COCCN1C[C@@H](NC(=O)Nc2c(Br)c([C@H]3CCCN3)nn2-c2ccccc2)[C@H](c2ccc(F)c(F)c2)C1` [Example 588, 1-(4-bromo-1-phenyl-3-((R)-pyrrolidin-2-yl)-1H-pyrazol-5-yl)-3-((3S,4R)-4-(3,4-difluorophenyl)-1-(2-methoxyethyl)pyrrolidin-3-yl)urea dihydrochloride] displayed an IC50 of less than 100 nM.

Compound `COCCN1C[C@@H](NC(=O)Nc2c(Br)c(-c3cnn(C)c3)nn2-c2ccccc2)[C@H](c2cncc(F)c2)C1` [Example 440, 1-(4-bromo-1′-methyl-1-phenyl-1H,1′H-[3,4′-bipyrazol]-5-yl)-3-((3S,4R)-4-(5-fluoropyridin-3-yl)-1-(2-methoxyethyl)pyrrolidin-3-yl)urea] had an IC50 of less than 100 nM.
